“Also recorded” adds a separate entry of the source. Each block holds one compound with its values, some of them ahead of it. Positions of bridges follow the written chain, without caps; N, C: chain ends. Non-standard residues stand in square brackets, D forms with d. Residues, ends and D or L forms follow the SMILES beside them. No end group written: not given here. β2Val = β2-Val (beta2-Val), beta-amino acid; d2Nal = N[C@H](Cc1ccc2ccccc2c1)C(=O)O; β3hP = O=C(O)C[C@@H]1CCCN1; Nle = CCCC[C@H](N)C(=O)O
Legend:
[1] = system: LPS-induced cachexia in rats; test: Lipopolysaccharide (LPS)-induced cachexia assay; type: in vivo, rat; details: for food intake, 24 hours after LPS challenge / body weight (percent of pre-LPS baseline), 24 hours after LPS challenge: 0.2 mg/kg intraperitoneally; for food intake, 24 hours after LPS challenge: FIG. 8A; for body weight (percent of pre-LPS baseline), 24 hours after LPS challenge: FIG. 8B; for anti-cachectic activity after ICV (IVt) administration (in words): intracerebroventricular administration; for peripheral (IP) anti-cachexia activity, feeding (in words): peripheral / intraperitoneal administration after LPS
Procedure: The LPS model uses rats were maintained on a 12 h light/dark schedule with ad libitum access to food and water. Animals were handled daily for a minimum of three consecutive days to decrease non-specific handling stress. On the day of the experiment, individually housed animals received intraperitoneal injections of LPS dissolved in 0.5% low-endotoxin BSA, 0.9% saline or 0.5% BSA in 0.9% saline alone, and were returned to their home cage. The drug or control was administered (ICV, IP, or PO, depending on the type of study) 1-hour after LPS injection.
In the experiments described herein, a series of melanocortin receptor antagonist peptides were examined in a bacterial endotoxin inducing cachexia assay. For this assay, a rat is challenged with a single peripheral injection of lipopolysaccharide (LPS). LPS is a heat-stable lipo-polysaccharide, the major component of the outer membrane (capsule) of gram negative bacteria. In non-capsulated strains, it appears as a cell surface […]. LPS produces a strong immune response, including secretion of the proinflammatory cytokines Tumor Necrosis Factor α (TNFα) and interleukin-1 (IL-1). Proinflammatory cytokines are known factors that induce cachexia.
Rats are maintained on a 12-hour light/dark cycle. Animals are handled daily for a minimum of 5 consecutive days to acclimate them to the handling required for the experiment. […] On the day of the experiment, individually housed animals receive intraperitoneal (IP) injections of LPS dissolved in 0.5% low-endotoxin BSA, 0.9% saline or 0.5% BSA in 0.9% saline alone, and returned in their home cage. Melanocortin receptor antagonist peptides were administered (IP or by gavage, depending on the type of study) one hour after the LPS injection. The extent of cachexia is measured by the reduction in food intake, measured every two hours. The cachexia typically lasts only a single day. However, rats lose up to 5% of their body weight during a 12-hour light cycle, making up this loss plus food needed for normal growth during the 12-hour dark cycle. Thus, failure to eat appropriately during a single dark cycle is determinable from the animal's weight and any changes thereof.
A series of melanocortin receptor antagonist peptides were examined in a bacterial toxin inducing cachexia assay. In this assay, a rat was challenged with a single peripheral injection of lipopolysaccharide (LPS), a bacterial toxin that rapidly induces acute cachexia. The extent of cachexia was measured as a reduction in food intake, measured every two hours. The cachexia typically lasts only a single day.

[2] = TCMCB07 in rat plasma and cerebrospinal fluid after IV administration (HPLC fluorescence, mass spectrometry); type: in vivo
Procedure: Urethane-Anesthetized Rats Had Polyethylene (PE)-Tubing Cannulas Placed in their Femoral artery and vein. Each rat was then placed in a small animal stereotaxic apparatus, their head fixed in the lateral plane with ear bars, and their head placed in a 45-50° downward angle by placing their nose below an adjustable tooth bar. This position placed the animal's cistern magna at the highest vertical position of its body. The dural covering of the dorsal cistern magna was exposed.
A stainless steel cannula, with one end attached to PE-tubing, was placed in a stereotaxic tower cannula holder (open end down). The free end of the PE-tubing was attached to a 100 μL gas-tight Hamilton syringe with a 28-gauge needle. The cannula was adjusted to a position that approximated the middle of the exposed cistern magna, and the cannula lowered until it touched the dura mater. […] The dura has a degree of flexibility such that the cannula can depress it before it pierces it. After it was pierced, the dural rises to its original position, placing the cannula tip within the cistern magna space. The position of the cannula tip was again noted on the vertical axis of the tower. Typically, the cannula tip was 1.6-1.8 mm below the original dura-touch position. The cannula tip was then adjusted, if needed, to 1.8 mm below the dura, and the cannula sealed to the dura using skin glue. Samples of cisternal cerebrospinal (CSF) fluid were removed through cannula and PE-tubing by slowly drawing on the Hamilton syringe.
For the experimental procedure, baseline samples of blood and CSF were taken (“0” time points), followed by the IV administration of 750 nmol/kg TCMCB07. Samples of CSF (50 μL) and blood (1 mL) were collected at the following time points: 0, 5, 15, 30, and 90 minutes. […] Both CSF and plasma were stored at −80° C. until analyzed by (HPLC) with spectrofluoremetric monitoring at 230 nm excitation and […] emission (the fluorescence maximum for the Nal residue). […]

[3] = system: Lewis sarcoma rat; test: Reversal of cachexia-induced lethargy; type: in vivo; details: once-daily peripheral dosing for 48 hours (2 IP doses), irrespective of tumor load
Source text: In animals and humans, cachexia produces “lethargy,” i.e., the aversion to activity. Grossberg et al., J. Neurosci. 31(31): 11376-11386. […] This therapeutic effect is dependent on a stabilized melanocortin antagonist C-terminal extension. Video recordings characterized control animal behavior as neo-exploratory movement about the cage, i.e., repeated “sniffing” the air to presumably sample odors (e.g., neighboring animals), grooming, and intermittent bouts of eating and drinking. Caldecott-Hazard et al., J. Neurosci. 8(6): 1951-1961 (1988).
The animal typically remains in one position for an extended period of time (>1 minute). Occasionally it will change position, assuming the new position for an extended period. The rats show no grooming behavior, evident in the appearance of their coat and eyes.

[4] = system: cachexia models; details: Marks et al., Cancer Res. 2001; cited from earlier work
[5] = Sutton et al., Peptides 2008; cited from earlier work
[6] = system: urethane-anesthetized rats; test: Cardiovascular activity of melanocortin peptides (MAP, heart rate, ECG); details: 200 nmol, n = 5
Procedure: These studies were performed in urethane-anesthetized rats, since anesthesia is required for six-lead ECG monitoring. […] Initial selection of doses was guided by FDA exploratory IND studies with a recommendation for at least a 100-fold excess of the human dose.

- presence in CSF by mass spectrometry of HPLC effluent ([2]; after IV 750 nmol/kg, no obvious Nal-fluorescence peak): confirmed the presence of TCMCB07 in CSF
Compound: CCCC[C@H](NC(C)=O)C(=O)N[C@H]1CC(=O)NCCCC[C@@H](C(=O)N[C@@H](C(=O)N2CCC[C@@H]2C(N)=O)C(C)C)NC(=O)[C@H](Cc2c[nH]c3ccccc23)NC(=O)[C@H](CCCN=C(N)N)NC(=O)[C@@H](Cc2ccc3ccccc3c2)NC(=O)[C@@H]2CCCN2C1=O [TCMCB07, Ac-Nle-c[Asp-Pro-D-Nal(2′)-Arg-Trp-Lys]-D-Val-D-Pro-NH2] (Ac-[Nle]DP[d2Nal]RWK[dV][dP]-NH2; lactam 2-7)
- blood-brain barrier transport (concluded from peripheral vs ICV activity) ([1]; LPS model): both gastrointestinal and blood-brain barrier transport
- proposed metabolite peak (retention time 12.9 minutes) in CSF ([2]; 5 and 30 minutes post IV 750 nmol/kg, peak height): peak height increases over time; also recorded: increased cerebrospinal fluid concentration
- transport through the blood-brain-barrier (physical evidence) ([2]; IV 750 nmol/kg): direct physical evidence of TCMCB07 transport through the blood-brain-barrier

Compound: CCCC[C@H](NC(C)=O)C(=O)N[C@H]1CC(=O)NCCCC[C@@H](C(=O)N[C@@H](C(=O)N2CCC[C@@H]2C(N)=O)C(C)C)NC(=O)[C@H](Cc2c[nH]c3ccccc23)NC(=O)[C@H](CCCNC(=N)N)NC(=O)[C@@H](Cc2ccc3ccccc3c2)NC(=O)[C@@H]2CCCN2C1=O [TCMCB07, Ac-Nle-c[Asp-Pro-D-Nal(2′)-Arg-Trp-Lys]-D-Val-D-Pro-NH2] (Ac-[Nle]DP[d2Nal]RWK[dV][dP]-NH2; lactam 2-7)
- food intake, 24 hours after LPS challenge [1]: stimulated appetites
- body weight (percent of pre-LPS baseline), 24 hours after LPS challenge [1]: significantly gained weight
- peripheral (IP) LPS anti-cachectic activity relative to TCMCB02 ([1]; IP): 10 fold
- oral activity / gastrointestinal transport (in words) ([1]; gavage (intra-gastric) administration, LPS cachexia): significant enhancement of food intake
- anti-cachectic activity after ICV (IVt) administration (in words) ([1]; LPS model): maintained ICV activity
- peripheral (IP) anti-cachexia activity, feeding (in words) [1]: equivalent stimulation of feeding; also recorded: significant increase in feeding
- activity following peripheral administration relative to TCMCB02 ([1]; peripheral administration): about 10 times
- behavior of cachectic (lethargic) rats [3]: restored “normal” behavior to rats

Compound: AGRP: endogenous melanocortin system inhibitor (agouti-related protein); naturally occurring melanocortin antagonist protein (SSRRCVRLHESCLGQQVPCCDPCATCYCRFFNAFCYCRKLGTAMNPCSRT; ends and bridges not checked; cysteine pairing not given here; UniProt O00253 83-132, looked up)
- reversal of cachexia-anorexia syndrome [4]: 100%

Compound: Ac-Nle-c[Asp-Pro-D-Nal(2′)-Arg-Trp-Lys]-Pro-Val-NH2 (Ac-[Nle]DP[d2Nal]RWKPV-NH2; lactam 2-7) [PG932]
- peripheral activity [5]: active peripherally
- Duration [6]: 4 ± 3 min
- Peak Heart Rate Response (BPM) [6]: 13 ± 9 BPM
- Peak MAP Response (Δ mm Hg) [6]: 5 ± 3 mm Hg

Compound: Ac-Nle-c[Asp-Pro-D-Nal(2′)-Arg-Trp-Lys]-β^3-Pro-β^2-Val-NH2 (Ac-[Nle]DP[d2Nal]RWK[β3hP][β2Val]-NH2; lactam 2-7) [TCMCB05]
- food intake, 24 hours after LPS challenge [1]: stimulated appetites
- body weight (percent of pre-LPS baseline), 24 hours after LPS challenge [1]: significantly gained weight
- molar activity relative to TCMCB02 ([1]; ICV administration, LPS-induced cachexia): 10 fold
- anti-cachectic activity after ICV (IVt) administration (in words) ([1]; LPS model): molar activity equivalent to TCMCB02
- peripheral (IP) anti-cachexia activity, feeding (in words) [1]: had IP anti-cachexia activity; also recorded: had peripheral anti-cachexia activity; also recorded: Only TCMCB07 produced a significant increase in feeding
- behavior of cachectic (lethargic) rats [3]: restored “normal” behavior to rats

From US20170081383A1, “MELANOCORTIN ANALOGS HAVING ENHANCED ACTIVITY AND TRANSPORT” (Tensive Controls Inc., priority 2012, published 2017)
